Test system: 633275-114-R-J1-PDC complex spheroids, viability
Assay: Anticancer human tumor 633275-114-R-J1-PDC patient-derived endometrial adenocarcinoma cell line growth inhibition [GQUAD]
Conditions: for IC50: curve of first compound; for viability, T/C: stronger effect = lower value; active = viability on the fitted dose curve at most 10% of control; inactive = the rest
Outline: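 Tumor cells were grown as complex spheroids with HUVEC endothelial cells and mesenchymal stem cells as stroma. G-quadruplex stabilizers were combined with targeted agents over half-log dilutions from near the clinical Cmax, or from 10 microM.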

[1] = second compound 0.0316 µM, first compound 0.0316 µM
[2] = second compound 0.0316 µM, first compound 0.1 µM
[3] = second compound 0.0316 µM, first compound 0.316 µM
[4] = second compound 0.0316 µM, first compound 1 µM
[5] = second compound 0.0316 µM, first compound 3.16 µM
[6] = second compound 0.0316 µM, first compound 10 µM
[7] = second compound 0.1 µM, first compound 0.0316 µM
[8] = second compound 0.1 µM, first compound 0.1 µM
[9] = second compound 0.1 µM, first compound 0.316 µM
[10] = second compound 0.1 µM, first compound 1 µM
[11] = second compound 0.1 µM, first compound 3.16 µM
[12] = second compound 0.1 µM, first compound 10 µM
[13] = second compound 0.316 µM, first compound 0.0316 µM
[14] = second compound 0.316 µM, first compound 0.1 µM
[15] = second compound 0.316 µM, first compound 0.316 µM
[16] = second compound 0.316 µM, first compound 1 µM
[17] = second compound 0.316 µM, first compound 3.16 µM
[18] = second compound 0.316 µM, first compound 10 µM
[19] = second compound 1 µM, first compound 0.0316 µM
[20] = second compound 1 µM, first compound 0.1 µM
[21] = second compound 1 µM, first compound 0.316 µM
[22] = second compound 1 µM, first compound 1 µM
[23] = second compound 1 µM, first compound 3.16 µM
[24] = second compound 1 µM, first compound 10 µM
[25] = second compound 3.16 µM, first compound 0.0316 µM
[26] = second compound 3.16 µM, first compound 0.1 µM
[27] = second compound 3.16 µM, first compound 0.316 µM
[28] = second compound 3.16 µM, first compound 1 µM
[29] = second compound 3.16 µM, first compound 3.16 µM
[30] = second compound 3.16 µM, first compound 10 µM
[31] = second compound 10 µM, first compound 0.0316 µM
[32] = second compound 10 µM, first compound 0.1 µM
[33] = second compound 10 µM, first compound 0.316 µM
[34] = second compound 10 µM, first compound 1 µM
[35] = second compound 10 µM, first compound 3.16 µM
[36] = second compound 10 µM, first compound 10 µM
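Note: spheroids exposed to the agents for seven days.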
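Throughout, for viability, T/C: percent of DMSO vehicle control viability which is 100%.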

C#Cc1c(F)ccc2cc(O)cc(-c3ncc4c(N5CC6CCC(C5)N6)nc(OCC56CCCN5CC(F)C6)nc4c3F)c12 (stereo unspecified) + Cc1[nH]c2ccc(F)cc2c1-c1nc2c3cccnc3c3ncccc3c2[nH]1
> 10000 nM: IC50 (second compound 0.0316 µM) | IC50 (second compound 0.1 µM) | IC50 (second compound 0.316 µM) | IC50 (second compound 1 µM)
4060 nM: IC50 (second compound 10 µM)
inactive: viability, T/C [1] 103% | viability, T/C [2] 89.9% | viability, T/C [3] 93.8% | viability, T/C [4] 81.1% | viability, T/C [5] 75.7% | viability, T/C [6] 60.6% | viability, T/C [7] 89.7% | viability, T/C [8] 107% | viability, T/C [9] 83.7% | viability, T/C [10] 88.4% | viability, T/C [11] 69.8% | viability, T/C [12] 64% | viability, T/C [13] 89.3% | viability, T/C [14] 86.7% | viability, T/C [15] 82.7% | viability, T/C [16] 81.1% | viability, T/C [17] 77.5% | viability, T/C [18] 60.6% | viability, T/C [19] 78.8% | viability, T/C [20] 82% | viability, T/C [21] 82.5% | viability, T/C [22] 74.6% | viability, T/C [23] 71.5% | viability, T/C [24] 56.6% | viability, T/C [25] 63.5% | viability, T/C [26] 66.1% | viability, T/C [27] 65.7% | viability, T/C [28] 66.2% | viability, T/C [29] 52% | viability, T/C [30] 41.1% | viability, T/C [31] 58% | viability, T/C [32] 60.7% | viability, T/C [33] 60.7% | viability, T/C [34] 62.4% | viability, T/C [35] 52.8% | viability, T/C [36] 34.7%
4830 nM: IC50 (second compound 3.16 µM)

CC(=O)O[C@H]1C(=O)[C@@]2(C)[C@H]([C@H](OC(=O)c3ccccc3)[C@]3(O)C[C@H](OC(=O)[C@H](O)[C@@H](NC(=O)c4ccccc4)c4ccccc4)C(C)=C1C3(C)C)[C@]1(OC(C)=O)CO[C@@H]1C[C@@H]2O + Cc1[nH]c2ccc(F)cc2c1-c1nc2c3cccnc3c3ncccc3c2[nH]1
< 31.6 nM: IC50 (second compound 0.1 µM) | IC50 (second compound 0.316 µM) | IC50 (second compound 1 µM) | IC50 (second compound 3.16 µM) | IC50 (second compound 10 µM)
inactive: viability, T/C [1] 50.9% | viability, T/C [2] 25.6% | viability, T/C [3] 20.8% | viability, T/C [4] 19.7% | viability, T/C [5] 20.6% | viability, T/C [6] 18.9% | viability, T/C [7] 45.3% | viability, T/C [8] 25.8% | viability, T/C [9] 20.2% | viability, T/C [10] 18.4% | viability, T/C [11] 19.1% | viability, T/C [12] 18.9% | viability, T/C [13] 47.8% | viability, T/C [14] 22.1% | viability, T/C [15] 19.9% | viability, T/C [16] 19.5% | viability, T/C [17] 19.4% | viability, T/C [18] 19.1% | viability, T/C [19] 41% | viability, T/C [20] 21.3% | viability, T/C [21] 19.8% | viability, T/C [22] 17.7% | viability, T/C [23] 18.2% | viability, T/C [24] 17.2% | viability, T/C [25] 38.2% | viability, T/C [26] 17.7% | viability, T/C [27] 16.3% | viability, T/C [28] 16.5% | viability, T/C [29] 19.4% | viability, T/C [30] 17.7% | viability, T/C [31] 36.8% | viability, T/C [32] 18.8% | viability, T/C [33] 17.5% | viability, T/C [34] 18.8% | viability, T/C [35] 18.4% | viability, T/C [36] 17.2%
32.9 nM: IC50 (second compound 0.0316 µM)

CC(C)(O)C1CCC(Nc2ccc3ncc(-c4cccc(C(F)(F)F)c4)n3n2)CC1 (stereo unspecified) + Cc1[nH]c2ccc(F)cc2c1-c1nc2c3cccnc3c3ncccc3c2[nH]1
1910 nM: IC50 (second compound 1 µM)
947 nM: IC50 (second compound 3.16 µM)
2010 nM: IC50 (second compound 0.1 µM)
inactive: viability, T/C [1] 108% | viability, T/C [2] 103% | viability, T/C [3] 112% | viability, T/C [4] 75.2% | viability, T/C [5] 32.2% | viability, T/C [6] 32.6% | viability, T/C [7] 98.7% | viability, T/C [8] 103% | viability, T/C [9] 101% | viability, T/C [10] 79.7% | viability, T/C [11] 28.9% | viability, T/C [12] 32.5% | viability, T/C [13] 95.5% | viability, T/C [14] 99.1% | viability, T/C [15] 90.5% | viability, T/C [16] 70.2% | viability, T/C [17] 27.5% | viability, T/C [18] 32.6% | viability, T/C [19] 89.6% | viability, T/C [20] 95.6% | viability, T/C [21] 86.8% | viability, T/C [22] 74.2% | viability, T/C [23] 31% | viability, T/C [24] 27% | viability, T/C [25] 72.6% | viability, T/C [26] 75.5% | viability, T/C [27] 69.9% | viability, T/C [28] 49.3% | viability, T/C [29] 27.4% | viability, T/C [30] 26.1% | viability, T/C [31] 65.2% | viability, T/C [32] 69.8% | viability, T/C [33] 62.6% | viability, T/C [34] 52.1% | viability, T/C [35] 24.1% | viability, T/C [36] 21.5%
1780 nM: IC50 (second compound 0.316 µM)
1070 nM: IC50 (second compound 10 µM)
1970 nM: IC50 (second compound 0.0316 µM)
